The values below come from US9023852B2, “1, 2, 4-thiadiazol-5-ylpiperazine derivatives useful in the treatment of neurodegenerative diseases” (Remynd NV, priority 2011, dated 2015).

For orientation: EC50 means the concentration giving half of the maximal effect. Lower therefore signals an effect from little substance.

This test has as its system M17—3TAU(P301L) cells. In words: Neuroblastoma tauopathy model: inhibition of TAU-induced cytotoxicity (LDH). The test is classed as cell-based. To be noted: Homo sapiens, 168 h; inhibition of TAU-induced toxicity (LDH), 7 days differentiation with retinoic acid. The text has this: A TAU expression plasmid was constructed by sub-cloning the cDNA encoding for human TAU-P301L protein, wherein proline at position 301 is substituted by a leucine residue, into mammalian expression vector pcDNA3.1 resulting in the plasmid pcDNA3.1-TAUP301L. Plasmids pcDNA3.1 and pcDNA3.1-TAU P301L were transfected into human neuroblastoma cells (BE-M17; ATCC No. CRL-2267™) using lipofectamine reagent and subsequently, independent clonal cell lines with the plasmids stably integrated into the genome were selected by antibiotic resistance selection (Geneticin (G418)), resulting in cell lines M17.pcDNA3 and M17—3TAUP301L. Expression of the TAUP301L gene in the M17—3TAUP301L cells was confirmed by Western blot analysis.
Differentiation of the cells with RA leads to phosphorylation and subsequent aggregation of TAU, inducing a tauopathy in these cells. Cytotoxicity of cells was measured by quantification of lactate dehydrogenase (LDH) levels. In dead cells LDH is leaked out of the cells into the medium due to a loss of plasma-membrane integrity.
Briefly, 3 days preceding the experiment pre-cultures of M17.pcDNA3 and M17—3TAU(P301L) cells were prepared, starting from a stock culture, at a density of 50.000-100.000 cells/cm2 in detection medium (Optimem Reduced Serum without phenol red (Gibco, Cat. 31985-047) supplemented with 1% fetal calf serum (FCS), 1 mM sodium pyruvate, 1× non-essential amino acids (NEAA), 500 μg/ml G418 and 0.5× antibiotic/antimycotic (ABAM)). At the day of the experiment these precultures were diluted to ˜0, 1.106 cells/ml in detection medium without FCS and 60 μL of this suspension is dispensed per well into a 96-well microtiter plate. After 3 hours of incubation at 37° C./5% CO2 an equal volume of detection medium containing 2.5 μM RA was added and subsequently incubated for 7 days at 37° C./5% CO2. After 7 days, LDH activity was determined using the Promega Cytotox 96 Non-Radioactive cytotoxicity assay (Cat. G1780), according the manufacturer's instructions. Cytotoxicity is measured as the ratio of LDH increase in the supernatant divided by the LDH increase in the total cell suspension (sum of the LDH measured in cells and supernatant).
The M17—3TAU(P301L) cell line makes it possible to assess the ability of novel compounds to inhibit TAU-induced cytotoxicity. […] Compounds were tested for their ability to hamper TAU-induced toxicity at different concentrations, ranging from low non-effective concentrations to high potent concentrations. Afterwards, the dose-dependent inhibition curve was used to calculate their EC50 (Table 1).
As for `FC(F)(F)c1ccc(CCN2CCN(c3nc(-c4ccc(Cl)cc4)ns3)CC2)cc1` [Example 144, 1-[3-(4-Chloro-phenyl)-[1,2,4]thiadiazol-5-yl]-4-[2-(4-trifluoromethyl-phenyl)-ethyl]-piperazine], the EC50 was 0.602 µM.

Consider `Cc1cccc(CCN2CCN(c3nc(-c4ccc(Cl)cc4)ns3)CC2)c1` [Example 23, 1-[3-(4-Chloro-phenyl)-[1,2,4]thiadiazol-5-yl]-4-(2-m-tolyl-ethyl)-piperazine], for which the EC50 was 0.0019 µM.

For the molecule `Cc1ccccc1CN1CCN(c2nc(-c3cncc(Cl)c3)ns2)CC1` [Example 151, 1-[3-(5-Chloro-pyridin-3-yl)-[1,2,4]thiadiazol-5-yl]-4-(2-methyl-benzyl)-piperazine], the EC50 is 0.0082 µM.

For `COc1ccc(C(O)CN2CCN(c3nc(-c4ccc(Cl)cc4)ns3)CC2)cc1` (centres unmarked) [Example 54, 2-{4-[3-(4-Chloro-phenyl)-[1,2,4]thiadiazol-5-yl]-piperazin-1-yl}-1-(4-methoxy-phenyl)-ethanol], the response was half-maximal at 0.0161 µM (EC50).

As to `Cc1ccccc1CN1CCN(c2nc(-c3ccc(F)c(F)c3)ns2)CC1` [Example 107, 1-[3-(3,4-Difluoro-phenyl)-[1,2,4]thiadiazol-5-yl]-4-(2-methyl-benzyl)-piperazine], the EC50 was 0.0722 µM.

Molecule `COc1ccc(CCN2CCN(c3nc(-c4cnnc(C)c4)ns3)CC2)cc1` [Example 177, 5-(4-(4-methoxyphenethyl)piperazin-1-yl)-3-(6-methylpyridazin-4-yl)-1,2,4-thiadiazole] gave an EC50 of 0.001 µM.

`Cc1ccccc1CN1CCN(c2nc(-c3ccc(Cl)cc3)ns2)CC1` [Example 12, 1-[3-(4-Chloro-phenyl)-[1,2,4]thiadiazol-5-yl]-4-(2-methyl-benzyl)-piperazine] came in with an EC50 of 0.269 µM.

The molecule `COc1cccc(CCN2CCN(c3nc(-c4cccc(Cl)c4)ns3)CC2)c1` [Example 48, 1-[3-(3-Chloro-phenyl)-[1,2,4]thiadiazol-5-yl]-4-[2-(3-methoxy-phenyl)-ethyl]-piperazine] showed an EC50 of 0.0006 µM.

Consider `Cc1ccc(-c2nsc(N3CCN(CCc4ccccc4)CC3)n2)cn1` [Example 94, 1-[3-(6-Methyl-pyridin-3-yl)-[1,2,4]thiadiazol-5-yl]-4-phenethyl-piperazine], for which a half-maximal response (EC50) required 0.0095 µM.

In turn, `COc1cccc(CCN2CCN(c3nc(-c4cc(Cl)cc(Cl)c4)ns3)CC2)c1` [Example 31, 1-[3-(3,5-Dichloro-phenyl)-[1,2,4]thiadiazol-5-yl]-4-[2-(3-methoxy-phenyl)-ethyl]-piperazine] displayed an EC50 of 0.0211 µM.

As to `FC(F)(F)c1cccc(CCN2CCN(c3nc(-c4cc(Cl)ccn4)ns3)CC2)c1` [Example 159, 3-(4-chloropyridin-2-yl)-5-(4-(3-(trifluoromethyl)phenethyl)piperazin-1-yl)-1,2,4-thiadiazole], a half-maximal response (EC50) required 0.119 µM.

In the case of `Cc1ccc(-c2nsc(N3CCN(Cc4ccccc4C)CC3)n2)cc1` [Example 6, 1-(2-Methyl-benzyl)-4-(3-p-tolyl-[1,2,4]thiadiazol-5-yl)-piperazine], the EC50 was determined as 0.278 µM.

`Cc1ccccc1CN1CCN(c2nc(-c3cccc(C#N)c3)ns2)CC1` [Example 119, 3-{5-[4-(2-Methyl-benzyl)-piperazin-1-yl]-[1,2,4]thiadiazol-3-yl}-benzonitrile]: the EC50 turned out to be 0.025 µM.

Molecule `N#Cc1ccc(-c2nsc(N3CCN(CCc4ccccc4)CC3)n2)cc1` [Example 108, 4-[5-(4-Phenethyl-piperazin-1-yl)-[1,2,4]thiadiazol-3-yl]-benzonitrile] registered an EC50 of 0.0079 µM.

Molecule `COc1cccc(C(O)CN2CCN(c3nc(-c4ccc(Cl)cc4)ns3)CC2)c1` (centres unmarked) [Example 61, 2-{4-[3-(4-Chloro-phenyl)-[1,2,4]thiadiazol-5-yl]-piperazin-1-yl}-1-(3-methoxy-phenyl)-ethanol] had an EC50 of 0.0444 µM.

In turn, `Fc1cccc(-c2nsc(N3CCN(CCc4cccc(C(F)(F)F)c4)CC3)n2)c1` [Example 141, 1-[3-(3-Fluoro-phenyl)-[1,2,4]thiadiazol-5-yl]-4-[2-(3-trifluoromethyl-phenyl)-ethyl]-piperazine] gave an EC50 of 0.198 µM.

For `COc1cccc(CCN2CCN(c3nc(-c4cnccn4)ns3)CC2)c1` [Example 77, 2-(5-{4-[2-(3-Methoxy-phenyl)-ethyl]-piperazin-1-yl}-[1,2,4]thiadiazol-3-yl)-pyrazine], the midpoint of the response, the EC50, lay at 0.261 µM.

In turn, `Fc1ccc(CCN2CCN(c3nc(-c4cncc(Cl)c4)ns3)CC2)cc1` [Example 131, 1-[3-(5-Chloro-pyridin-3-yl)-[1,2,4]thiadiazol-5-yl]-4-[2-(4-fluoro-phenyl)-ethyl]-piperazine] came in with an EC50 of 0.0013 µM.

In turn, `COc1cccc(CCN2CCN(c3nc(-c4cccs4)ns3)CC2)c1` [Example 33, 1-[2-(3-Methoxy-phenyl)-ethyl]-4-(3-thiophen-2-yl-[1,2,4]thiadiazol-5-yl)-piperazine] had an EC50 of 0.158 µM.

The molecule `COc1ccc(CCN2CCN(c3nc(-c4ccncc4)ns3)CC2)cc1` [Example 43, 1-[2-(4-Methoxy-phenyl)-ethyl]-4-(3-pyridin-4-yl-[1,2,4]thiadiazol-5-yl)-piperazine] showed an EC50 of 0.0033 µM.

In turn, `N#Cc1cccc(-c2nsc(N3CCN(CCc4ccccc4)CC3)n2)c1` [Example 109, 3-[5-(4-Phenethyl-piperazin-1-yl)-[1,2,4]thiadiazol-3-yl]-benzonitrile] had an EC50 of 0.003 µM.

Consider `OC(CN1CCN(c2nc(-c3ccc(Cl)cc3)ns2)CC1)c1cccc(F)c1` (centres unmarked) [Example 63, 2-{4-[3-(4-Chloro-phenyl)-[1,2,4]thiadiazol-5-yl]-piperazin-1-yl}-1-(3-fluoro-phenyl)-ethanol], for which a half-maximal response (EC50) required 0.0074 µM.

Molecule `Cc1ccccc1CN1CCN(c2nc(-c3cc(Cl)ccn3)ns2)CC1` [Example 128, 1-[3-(4-Chloro-pyridin-2-yl)-[1,2,4]thiadiazol-5-yl]-4-(2-methyl-benzyl)-piperazine] returned a concentration for a half-maximal effect (EC50) of 0.11 µM.

`Clc1ccc(-c2nsc(N3CCN(CCc4cccc(Cl)c4)CC3)n2)cc1` [Example 22, 1-[2-(3-Chloro-phenyl)-ethyl]-4-[3-(4-chloro-phenyl)-[1,2,4]thiadiazol-5-yl]-piperazine] had an EC50 of 0.0042 µM.

With `Fc1cccc(-c2nsc(N3CCN(CCC4CCCCC4)CC3)n2)c1` [Example 154, 1-(2-Cyclohexyl-ethyl)-4-[3-(3-fluoro-phenyl)[1,2,4]thiadiazol-5-yl]-piperazine], the EC50 was determined as 0.017 µM.

For the molecule `COc1ccc(CCN2CCN(c3nc(-c4ccccc4Cl)ns3)CC2)cc1` [Example 58, 1-[3-(2-Chloro-phenyl)-[1,2,4]thiadiazol-5-yl]-4-[2-(4-methoxy-phenyl)-ethyl]-piperazine], the EC50 came to 0.0022 µM.

Consider `Clc1cccc(-c2nsc(N3CCN(CCC4CCOCC4)CC3)n2)c1` [Example 165, 3-(3-chlorophenyl)-5-(4-(2-(tetrahydro-2H-pyran-4-yl)ethyl)piperazin-1-yl)-1,2,4-thiadiazole], for which the midpoint of the response, the EC50, lay at 0.0011 µM.

`COc1cc(CCN2CCN(c3nc(-c4cccc(F)c4)ns3)CC2)ccn1` [Example 90, 1-[3-(3-Fluoro-phenyl)-[1,2,4]thiadiazol-5-yl]-4-[2-(2-methoxy-pyridin-4-yl)-ethyl]-piperazine] gave a concentration for a half-maximal effect (EC50) of 0.0068 µM.

Turning to `COc1ccc(CCN2CCN(c3nc(-c4ccc(OC)cc4)ns3)CC2)cc1` [Example 40, 1-[2-(4-Methoxy-phenyl)-ethyl]-4-[3-(4-methoxy-phenyl)-[1,2,4]thiadiazol-5-yl]-piperazine], the EC50 amounted to 0.0141 µM.
